20 compounds from patent publication US12459951B2, “Compounds that interact with RAS superfamily proteins for treatment of cancers, inflammatory diseases, rasopathies, and fibrotic disease” (SHY Therapeutics, LLC, priority 2022, dated 2025) can be followed below.

One experiment relates to Akt phosphorylation. The experiment in a line: Akt Phosphorylation Assay (western blot), Panc-1. Format: cell-based, human. The note with it: at 10 μM, * = activation. The method in brief:
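Phospho-Akt (Ser473) was measured by western blot in lysates of KRas G12D Panc-1 cells exposed to test compound for 6 h at 37 °C, either at 10 μM final with 0.3% DMSO or as serial dilutions for IC50. One format used overnight 0.5% FBS starvation followed by a 15 min pulse of 1.5 ng/ml EGF. The other used cells in 10% FBS with no stimulation.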
(In general: Immunoblotting shows a protein as a band on a membrane.)

The test system of the next experiment is MAPK p38 phosphorylation. Nature of the experiment: MAPK p38 Activation Assay (western blot), Panc-1. The experiment is classed as cell-based, human. The note with it: at 10 μM, Panc-1 pancreatic cancer cell line; starred symbols = activation. The method in brief: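 Panc-1 cells (KRas G12D) were treated with compound for 6 h at 37 °C, at 10 μM or as serial dilutions for IC50, with 0.3% DMSO. Method 1 used overnight serum-starved cells (0.5% FBS) stimulated with 1.5 ng/ml EGF for 15 min; Method 2 used unstimulated cells in 10% FBS. Phospho-p38 (Thr180/Tyr182) was detected by western blot.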

The structures appear in SMILES notation.

With `COCC1CCN(c2nc(-c3ccccn3)nn3cc(-c4ccn(C(C)C)n4)c(-c4ccccc4)c23)C1` (racemic) [Compound 25, rac 6-(1-Isopropyl-1H-pyrazol-3-yl)-4-(3-(methoxymethyl)pyrrolidin-1-yl)-5-phenyl-2-(pyridin-2-yl)pyrrolo[2,1-f][1,2,4]triazine], the “% inh of Akt phosphorylation in Panc-1” value in the experiment with Akt phosphorylation was “D (85-100% inhibition)”. Also, the “% inh of MAPK p38 in Panc-1” value in the experiment on MAPK p38 phosphorylation is listed as “H* (H* ≥ 100% activation)”.
The matching figures for `COc1cccc(Nc2nc(-c3nccn3C)nn3cc(-c4ccn(C(C)C)n4)c(-c4ccccc4)c23)n1` [Compound 23, 6-(1-Isopropyl-1H-pyrazol-3-yl)-N-(6-methoxypyridin-2-yl)-2-(1-methyl-1H-imidazol-2-yl)-5-phenylpyrrolo[2,1-f][1,2,4]triazin-4-amine]: “D (85-100% inhibition)” and “H* (H* ≥ 100% activation)”.
The matching figures for `COc1cccc(-c2cn3nc(-c4nccn4C)nc(N[C@H]4C[C@@H](OC)C4)c3c2-c2ccccc2)c1Cl` [Compound 31, 6-(2-Chloro-3-methoxyphenyl)-N-((1s,3s)-3-methoxycyclobutyl)-2-(1-methyl-1H-imidazol-2-yl)-5-phenylpyrrolo[2,1-f][1,2,4]triazin-4-amine]: “D (85-100% inhibition)” and “H* (H* ≥ 100% activation)”.
The matching figures for `COCCNc1nc(-c2nccn2C)nn2cc(-c3cccc(OC)c3Cl)c(-c3ccccc3)c12` [Compound 29, 6-(2-Chloro-3-methoxyphenyl)-N-(2-methoxyethyl)-2-(1-methyl-1H-imidazol-2-yl)-5-phenylpyrrolo[2,1-f][1,2,4]triazin-4-amine]: “D (85-100% inhibition)” and “H (H = 100% inhibition)”.
On to `COc1cccc(-c2cn3nc(-c4nccn4C)nc(O)c3c2-c2ccccc2)c1Cl` [Compound 28, 6-(2-Chloro-3-methoxyphenyl)-2-(1-methyl-1H-imidazol-2-yl)-5-phenylpyrrolo[2,1-f][1,2,4]triazin-4-ol], for which, in the experiment on Akt phosphorylation, the “% inh of Akt phosphorylation in Panc-1” value is “A* (1-25% activation)”. Moreover, the “% inh of MAPK p38 in Panc-1” value in the experiment on MAPK p38 phosphorylation is “H* (H* ≥ 100% activation)”.
The matching figures for `CO[C@H]1CC[C@@H](Nc2nc(-c3nccn3C)nn3cc(-c4ccn(C(C)C)n4)c(C(C)C)c23)C1` (racemic) [Compound 36, rac 5-Isopropyl-6-(1-isopropyl-1H-pyrazol-3-yl)-N-((1R,3S)-3-methoxycyclopentyl)-2-(1-methyl-1H-imidazol-2-yl)pyrrolo[2,1-f][1,2,4]triazin-4-amine]: 0 (0% inhibition) and “H* (H* ≥ 100% activation)”.
On the same counts, the results for `COCCNc1nc(-c2nccn2C)nn2cc(-c3ccn(C(C)C)n3)c(C(C)C)c12` [Compound 35, 5-Isopropyl-6-(1-isopropyl-1H-pyrazol-3-yl)-N-(2-methoxyethyl)-2-(1-methyl-1H-imidazol-2-yl)pyrrolo[2,1-f][1,2,4]triazin-4-amine] are 0 (0% inhibition) and “H* (H* ≥ 100% activation)”.
The matching figures for `CO[C@H]1CC[C@@H](Nc2nc(-c3ccccn3)nn3cc(-c4ccn(C(C)C)n4)c(-c4ccccc4)c23)C1` (racemic) [Compound 24, rac 6-(1-Isopropyl-1H-pyrazol-3-yl)-N-((1R,3S)-3-methoxycyclopentyl)-5-phenyl-2-(pyridin-2-yl)pyrrolo[2,1-f][1,2,4]triazin-4-amine]: “A* (1-25% activation)” and “H* (H* ≥ 100% activation)”.
On to `COC[C@@H]1CC[C@@H]1CNc1nc(-c2ccccn2)nn2cc(-c3ccn(C(C)C)n3)c(-c3ccccc3)c12` (racemic) [Compound 26, rac 6-(1-Isopropyl-1H-pyrazol-3-yl)-N-(((1S,2R)-2-(methoxymethyl)cyclobutyl)methyl)-5-phenyl-2-(pyridin-2-yl)pyrrolo[2,1-f][1,2,4]triazin-4-amine], for which, in the experiment on Akt phosphorylation, the “% inh of Akt phosphorylation in Panc-1” value is “C (50-84% inhibition)”. The “% inh of MAPK p38 in Panc-1” value in the experiment with MAPK p38 phosphorylation is reported as “H* (H* ≥ 100% activation)”.
As to `COc1cccc(-c2cn3nc(-c4nccn4C)nc(N[C@@H]4CC[C@H](OC)C4)c3c2-c2ccccc2)c1Cl` (racemic) [Compound 33, rac 6-(2-Chloro-3-methoxyphenyl)-N-((1R,3S)-3-methoxycyclopentyl)-2-(1-methyl-1H-imidazol-2-yl)-5-phenylpyrrolo[2,1-f][1,2,4]triazin-4-amine], the “% inh of Akt phosphorylation in Panc-1” value with Akt phosphorylation is recorded as “D (85-100% inhibition)”. The “% inh of MAPK p38 in Panc-1” value in the experiment with MAPK p38 phosphorylation is on record as “H (H = 100% inhibition)”.
As for `COc1ccnc(Nc2nc(-c3nccn3C)nn3cc(-c4ccn(C)n4)c(C4CC4)c23)c1` [Compound 276, 5-Cyclopropyl-N-(4-methoxypyridin-2-yl)-2-(1-methyl-1H-imidazol-2-yl)-6-(1-methyl-1H-pyrazol-3-yl)pyrrolo[2,1-f][1,2,4]triazin-4-amine], the “% inh of Akt phosphorylation in Panc-1” value in the experiment with Akt phosphorylation is on record as “D* (85-100% activation)”.
Same read-out and setting: the value for `Cc1c(-c2ccn(C)n2)cn2nc(-c3nccn3C)nc(Nc3cc(-c4cccnc4)ccn3)c12` [Compound 250, N-([3,4′-Bipyridin]-2′-yl)-5-methyl-2-(1-methyl-1H-imidazol-2-yl)-6-(1-methyl-1H-pyrazol-3-yl)pyrrolo[2,1-f][1,2,4]triazin-4-amine] was “D* (85-100% activation)”.
On the same count and under the same terms, the value for `Cc1c(-c2ccn(C)n2)cn2nc(-c3nccn3C)nc(Nc3cc(C(F)F)[nH]n3)c12` [Compound 258, N-(5-(Difluoromethyl)-1H-pyrazol-3-yl)-5-methyl-2-(1-methyl-1H-imidazol-2-yl)-6-(1-methyl-1H-pyrazol-3-yl)pyrrolo[2,1-f][1,2,4]triazin-4-amine] was “A (1-25% inhibition)”; that for `Cc1c(-c2ccn(C)n2)cn2nc(-c3nccn3C)nc(Nc3cc(C4CCC4)[nH]n3)c12` [Compound 257, N-(5-Cyclobutyl-1H-pyrazol-3-yl)-5-methyl-2-(1-methyl-1H-imidazol-2-yl)-6-(1-methyl-1H-pyrazol-3-yl)pyrrolo[2,1-f][1,2,4]triazin-4-amine] was “D* (85-100% activation)”.
The same measure, in the same setting: the value for `Cc1c(-c2ccn(C)n2)cn2nc(-c3nccn3C)nc(Nc3cc[nH]n3)c12` [Compound 256, 5-Methyl-2-(1-methyl-1H-imidazol-2-yl)-6-(1-methyl-1H-pyrazol-3-yl)-N-(1H-pyrazol-3-yl)pyrrolo[2,1-f][1,2,4]triazin-4-amine] was “D* (85-100% activation)”; that for `Cc1c(-c2ccn(C)n2)cn2nc(-c3nccn3C)nc(Nc3cc(OC(F)F)n(C)n3)c12` [Compound 254, N-(5-(Difluoromethoxy)-1-methyl-1H-pyrazol-3-yl)-5-methyl-2-(1-methyl-1H-imidazol-2-yl)-6-(1-methyl-1H-pyrazol-3-yl)pyrrolo[2,1-f][1,2,4]triazin-4-amine] was “D* (85-100% activation)”.
As to `Cc1c(-c2ccn(C)n2)cn2nc(-c3nccn3C)nc(Nc3cc(-c4ccncc4)[nH]n3)c12` [Compound 266, 5-Methyl-2-(1-methyl-1H-imidazol-2-yl)-6-(1-methyl-1H-pyrazol-3-yl)-N-(5-(pyridin-4-yl)-1H-pyrazol-3-yl)pyrrolo[2,1-f][1,2,4]triazin-4-amine], the “% inh of Akt phosphorylation in Panc-1” value with Akt phosphorylation is on record as “D* (85-100% activation)”.
On to `COCCCNc1nc(-c2nccn2C)nn2cc(-c3cccc(OC)c3Cl)c(-c3ccccc3)c12` [Compound 30, 6-(2-Chloro-3-methoxyphenyl)-N-(3-methoxypropyl)-2-(1-methyl-1H-imidazol-2-yl)-5-phenylpyrrolo[2,1-f][1,2,4]triazin-4-amine], for which the “% inh of Akt phosphorylation in Panc-1” value in the experiment on Akt phosphorylation was “D (85-100% inhibition)”. Also, in the experiment with MAPK p38 phosphorylation, the “% inh of MAPK p38 in Panc-1” value is recorded as “F (F = 31-74% inhibition)”.
As for `COc1cc(Nc2nc(-c3nccn3C)nn3cc(-c4ccn(C)n4)c(C)c23)nn1C` [Compound 253, N-(5-Methoxy-1-methyl-1H-pyrazol-3-yl)-5-methyl-2-(1-methyl-1H-imidazol-2-yl)-6-(1-methyl-1H-pyrazol-3-yl)pyrrolo[2,1-f][1,2,4]triazin-4-amine], the “% inh of Akt phosphorylation in Panc-1” value in the experiment on Akt phosphorylation is reported as “D* (85-100% activation)”.
`COC1CCCN(c2nc(-c3ccccn3)nn3cc(-c4ccn(C(C)C)n4)c(-c4ccccc4)c23)C1` (racemic) [Compound 27, rac 6-(1-Isopropyl-1H-pyrazol-3-yl)-4-(3-methoxypiperidin-1-yl)-5-phenyl-2-(pyridin-2-yl)pyrrolo[2,1-f][1,2,4]triazine]: the “% inh of Akt phosphorylation in Panc-1” value with Akt phosphorylation is reported as “A* (1-25% activation)”. The “% inh of MAPK p38 in Panc-1” value in the experiment on MAPK p38 phosphorylation was “H* (H* ≥ 100% activation)”.
